Laboratory results reported in US6344564B1, “Fungicidal 2-imidazolin-5-ones and 2-imidazoline-5-thiones” (priority 1992, dated 2002).

Assays:
[1] = tested on: Phytophthora infestans; type: in vivo; settings: concentration at which 75% inhibition of the disease is observed; tomato seedlings (Marmande) sprayed 24 hours before infection with Phytophthora infestans spores; read seven days after infecting vs controls
[2] = tested on: Plasmopara viticola; assay: In vivo test on Plasmopara viticola (grape downy mildew); settings: in Vitis vinifera, 168 h, read-out: protection
[3] = tested on: Puccinia recondita; assay: In vivo test on Puccinia recondita (brown rust of wheat); settings: read-out: protection
[4] = tested on: Helminthosporium gramineum; assay: In vitro test on PDA medium, Helminthosporium gramineum; type: cell-based; settings: 120 h, dose of 20 ppm in PDA medium, 5 days at 20° C., compared with control dish, read-out: degree of inhibition of the fungus
[5] = tested on: Pythium vexans; assay: In vitro test on PDA medium, Pythium vexans; settings: Phytopythium vexans, 120 h, read-out: degree of inhibition of the fungus
Protocol: (§1) Each test is carried out in the following way: a nutrient medium consisting of potato, glucose and gelose (PDA medium) is introduced in the supercooled state into a series of Petri dishes (100 ml per dish) after sterilization in an autoclave at 120° C.
(§2) While filling the dishes, an acetone solution of the active material is injected into the supercooled medium to obtain the desired final concentration.
(§3) After 24 hours, each dish is cultured by depositing a fragment of ground mycelium arising from a previous culture of the same fungus.
(§4) For each compound tested, the degree of inhibition of the fungus studied is thus determined for a dose of 20 ppm.

[6] = tested on: Pythium rostratum; assay: In vitro test on PDA medium, Pythium rostratum; settings: Globisporangium rostratum, 120 h, read-out: degree of inhibition of the fungus
Protocol: as §1, §2, §3, §4

[7] = tested on: Alternaria alternata; assay: In vitro test on PDA medium, Alternaria alternata; settings: 120 h, read-out: degree of inhibition of the fungus
Protocol: as §1, §2, §3, §4

## CSC1=NC(C)(c2ccccc2)C(=O)N1N(C(C)=O)c1ccccc1 (stereo not drawn) [Compound 23, 4-methyl-1-(N-acetyl-N-phenylamino)-2-methylthio-4-phenyl-2-imidazolin-5-one]
other
  melting point: 132 °C

## CCC1(c2ccccc2)N=C(SC)N(Nc2ccccc2)C1=O (stereo not drawn) [Compound 48, 4-ethyl-2-methylthio-4-phenyl-1-phenylamino-2-imidazolin-5-one]
other
  melting point: 147 °C

## CSC1=NC2(CCCc3ccccc32)C(=O)N1Nc1ccccc1Cl (stereo not drawn) [Compound 104]
other
  melting point: 168 °C

## COC1=NC(C)(c2ccc(F)cc2)C(=O)N1Nc1cccc(F)c1 (racemic) [527 + 528]
[1]
  IC75 (ppm): 37 ppm

## COC1=NC2(CCCc3ccccc32)C(=O)N1Nc1ccccc1 (stereo not drawn) [Compound 407]
[2]
  pest or weed control at 1000 µg/mL: ≥ 75%
[3]
  pest or weed control at 1000 µg/mL: ≥ 75%

## COC1=NC(C)(c2ccc(Br)cc2)C(=O)N1Nc1ccccc1 (racemic) [505 + 506]
[1]
  IC75 (ppm): >1000 ppm

## CSC1=N[C@@](C)(c2ccc(F)cc2)C(=O)N1Nc1ccccc1 [Compound 511]
[1]
  IC75 (ppm): 12-37 ppm

## CSC1=NC(C)(c2ccccc2)C(=O)N1Nc1ccccc1 (racemic) [501 + 502]
[1]
  IC75 (ppm): 110 ppm

## COC1=NC(C)(c2ccc(F)cc2)C(=O)N1Nc1ccccc1 (single isomer, unassigned) [Compound 525]
[1]
  IC75 (ppm): 37 ppm

## COC1=N[C@@](C)(c2ccccc2)C(=O)N1Nc1ccccc1 [Compound 503, (+)-(4S)-4-methyl-2-methoxy-4-phenyl-1-phenylamino-2-imidazolin-5-one]
[1]
  IC75 (ppm): 110 ppm
other
  melting point: 132 °C

## CSC1=N[C@@](C)(c2ccc(F)cc2)C(=O)N1Nc1cccc(F)c1 [Compound 513]
[1]
  IC75 (ppm): 37 ppm

## COC1=NC2(CCc3ccccc32)C(=O)N1Nc1ccccc1 (stereo not drawn) [Compound 410]
[2]
  pest or weed control at 1000 µg/mL: ≥ 75%
[3]
  pest or weed control at 1000 µg/mL: ≥ 75%

## CSC1=NC(C)(c2ccccc2)C(=O)N1Nc1ccccc1 (stereo not drawn) [Compound 9, 4-methyl-2-methylthio-4-phenyl-1-phenylamino-2-imidazolin-5-one]
[4]
  inhibition at 20 ppm: 80 to 100%
[5]
  inhibition at 20 ppm: 80 to 100%
[6]
  inhibition at 20 ppm: 80 to 100%

## CSC1=NC(C)(Cc2ccccc2)C(=O)N1Nc1ccccc1 (stereo not drawn)
other
  melting point: 166 °C

## COC1=NC(C)(c2ccc(Br)cc2)C(=O)N1Nc1ccccc1 (stereo not drawn) [Compound 506]
[1]
  IC75 (ppm): >1000 ppm

## CSC1=NC(c2ccccc2)C(=O)N1Nc1ccccc1 (stereo not drawn)
other
  melting point: 190 °C

## CSC1=NC2(CCCc3ccccc32)C(=O)N1Nc1ccccc1C (stereo not drawn)
other
  melting point: 174 °C

## CSC1=N[C@@](C)(c2ccccc2)C(=O)N1Nc1ccccc1 [Compound 501, (+)-(4S)-4-methyl-2-methylthio-4-phenyl-1-phenylamino-2-imidazolin-5-one]
[1]
  IC75 (ppm): 37 ppm

## COC1=NC(C)(c2ccc(Br)cc2)C(=O)N1Nc1ccccc1 (stereo not drawn) [Compound 505]
[1]
  IC75 (ppm): 37 ppm
other
  melting point: 202 °C

## CSC1=NC(C)(c2ccc(F)cc2)C(=O)N1Nc1cccc(F)c1 (racemic) [513 + 514]
[1]
  IC75 (ppm): 110 ppm

## COC1=NC(C)(c2ccccc2)C(=O)N1Nc1ccccc1 (stereo not drawn) [Compound 504]
[1]
  IC75 (ppm): >1000 ppm
other
  melting point: 132 °C

## COC1=NC(C)(c2cccs2)C(=O)N1Nc1ccccc1 (stereo not drawn) [Compound 486]
[2]
  pest or weed control at 1000 µg/mL: ≥ 75%
[3]
  pest or weed control at 1000 µg/mL: ≥ 75%

## CC1=NC(C)(c2ccccc2)C(=O)N1Nc1ccccc1 (stereo not drawn) [Compound 201, 2,4-dimethyl-4-phenyl-1-phenylamino-2-imidazolin-5-one]
other
  melting point: 135 °C

## CSC1=NC(C)(c2ccccc2)C(=O)N1Nc1ccccc1 (stereo not drawn) [Compound 502]
[1]
  IC75 (ppm): >1000 ppm

## COC1=NC(C)(c2ccc(F)cc2)C(=O)N1Nc1cccc(F)c1 (single isomer, unassigned) [Compound 527]
[1]
  IC75 (ppm): 4-12 ppm

## CSC1=NC2(CCc3ccccc32)C(=O)N1Nc1ccccc1 (stereo not drawn) [Compound 98]
other
  melting point: 85 °C

## CSC1=NC(C)(c2cccnc2)C(=O)N1Nc1ccccc1 (stereo not drawn)
other
  melting point: 156 °C

## CSC1=NC(C)(c2ccc(F)cc2)C(=O)N1Nc1ccccc1 (racemic) [511 + 512]
[1]
  IC75 (ppm): 110 ppm

## CSC1=NC(C)(c2ccccc2)C(=O)N1N(C)c1ccccc1 (stereo not drawn) [Compound 22, 4-methyl-1-(N-methyl-N-phenylamino)-2-methylthio-4-phenyl-2-imidazolin-5-one]
other
  melting point: 124 °C
[5]
  inhibition at 20 ppm: 80 to 100%
[6]
  inhibition at 20 ppm: 80 to 100%
[7]
  inhibition at 20 ppm: 80 to 100%

## CSC1=NC2(CCCc3ccccc32)C(=O)N1Nc1ccccc1 (stereo not drawn) [Compound 97]
other
  melting point: 158 °C

## CSC1=NC2(CCCc3ccccc32)C(=O)N1Nc1ccc(Cl)cc1 (stereo not drawn)
other
  melting point: 191 °C

## CSC1=NC(C)(c2ccccc2)C(=S)N1Nc1ccccc1 (stereo not drawn) [Compound 1, 4-methyl-2-methylthio-4-phenyl-1-phenylamino-2-imidazoline-5-thione]
other
  melting point: 127 °C

## COC1=NC(C)(c2ccc(F)cc2)C(=O)N1Nc1ccccc1 (single isomer, unassigned) [Compound 526]
[1]
  IC75 (ppm): >1000 ppm

## COC1=NC(C)(c2ccccc2)C(=O)N1Nc1ccccc1 (racemic) [503 + 504]
[1]
  IC75 (ppm): 330 ppm

## CSC1=NC(C)(c2ccccc2)C(=O)N1Cc1ccccc1 (stereo not drawn) [Compound 34, 1-benzyl-4-methyl-2-methylthio-4-phenyl-2-imidazolin-5-one]
[5]
  inhibition at 20 ppm: 80 to 100%
[6]
  inhibition at 20 ppm: 80 to 100%

## COC1=NC(C)(c2ccc(F)cc2)C(=O)N1Nc1ccccc1 (racemic) [525 + 526]
[1]
  IC75 (ppm): 110 ppm
